Data reported in BindingDB's records for doi:10.1021/jm00110a015 (Virginia Commonwealth University, 1991).

Experiment: In vitro binding affinity at PCP binding site of sigma-opioid receptors using (+)-[3H]-MK-801 as radioligand

`COc1ccc(CC(C)NCCCc2ccccc2)cc1` (configuration not stated) and `CC(Cc1ccc(I)cc1)NCCCc1ccccc1` (configuration not stated) cannot be ordered by IC50: > 10 µM for the first, > 10 µM for the second.

Experiment: Inhibition of [3H]DTG binding to Sigma opioid receptor

In order of rising Ki:
1. CC(Cc1cccc(C(F)(F)F)c1)NCCCc1ccccc1 (configuration not stated)  0.0039 µM
2. CC(Cc1cccc(Br)c1)NCCCc1ccccc1 (configuration not stated)  0.006 µM
3. CCCc1ccc(CC(C)NCCCc2ccccc2)cc1 (configuration not stated)  0.0062 µM
4. c1ccc(CCCNC2Cc3ccccc3C2)cc1  0.027 µM
5. c1ccc(CCCNC2CCCc3ccccc3C2)cc1 (configuration not stated)  0.083 µM
